Results as given in US20130157852A1, “HERBICIDAL COMPOSITION CONTAINING FLUROXYPYR AND GLYPHOSATE” (DOW AGROSCIENCES LLC, priority 2011, published 2013).

How the values were obtained:
Format in all cases: in vivo
[1] = system: Mikania cordata (MIKCO, African mile-a-minute); assay: Postemergence field weed control, MIKCO; details: 28 DAA
Method: (§1) Evaluation of Postemergence Herbicidal Activity of Mixtures under Field Conditions Methodology
(§2) Trial sites were located in various countries around the world, including Brazil, United States, Hungary, Indonesia and Malaysia, in non-crop and perennial tree crop plantations. Trials were conducted using normal small plot R&D trials using standard research methodology. Trial plots were between 2 to 4 meters (m) wide by 3 to 10 m long. All treatments were applied using a randomized complete block or factorial trial design with 3-4 replications per treatment. The trial sites had naturally occurring populations of weeds. The weed spectrum included, but was not limited to, scarlet pimpernel (Anagallis arvensis L., ANGAR), tropical carpetgrass (Axonopus compressus, AXOCO), Canada thistle (Cirsium arvense (L.) Scop., CIRAR), calopo (Calopogonium mucunoides, CLOMU), Bengal dayflower (Commelina benghalensis L., COMBE), field bindweed (Convolvus arvensis, CONAR), horseweed (Conyza canadensis (L.) Cronq., ERICA), kochia (Kochia scoparia (L.) Schrad., KCHSC), common mallow (Malva neglecta Wallr., MALNE), African mile-a-minute (Mikania cordata (Burm. f.) B. L., MIKCO), slender panicgrass (Ottochloa nodosa, OTTNO), paspalum (Paspalum conjugatum Bergius, PASCO), wild buckwheat (Polygonum convolvulus L., POLCO) and stinging nettle (Urtica dioica L., URTDI). […]

[2] = system: Cirsium arvense (L.) Scop. (CIRAR, Canada thistle); assay: Postemergence field weed control, CIRAR
Method: as §1
(§3) Trial sites were located in various countries around the world, including Brazil, United States, Hungary, Indonesia and Malaysia, in non-crop and perennial tree crop plantations. Trials were conducted using normal small plot R&D trials using standard research methodology. Trial plots were between 2 to 4 meters (m) wide by 3 to 10 m long. All treatments were applied using a randomized complete block or factorial trial design with 3-4 replications per treatment. The trial sites had naturally occurring populations of weeds. The weed spectrum included, but was not limited to, scarlet pimpernel (Anagallis arvensis L., ANGAR), tropical carpetgrass (Axonopus compressus, AXOCO), Canada thistle (Cirsium arvense (L.) Scop., CIRAR), calopo (Calopogonium mucunoides, CLOMU), Bengal dayflower (Commelina benghalensis L., COMBE), field bindweed (Convolvus arvensis, CONAR), horseweed (Conyza canadensis (L.) Cronq., ERICA), kochia (Kochia scoparia (L.) Schrad., KCHSC), common mallow (Malva neglecta Wallr., MALNE), African mile-a-minute (Mikania cordata (Burm. f.) B. L., MIKCO), slender panicgrass (Ottochloa nodosa, OTTNO), paspalum (Paspalum conjugatum Bergius, PASCO), wild buckwheat (Polygonum convolvulus L., POLCO) and stinging nettle (Urtica dioica L., URTDI).
(§4) Treatments consisted of tank mixes of commercially available formulations of fluoroxypyr-meptyl ester (Starane® 200, Starane® 250, Starane® Ultra) and glyphosate (Roundup® isopropylammonium salt, Glizmax, Gliz) applied in water. The application volume varied from location to location but was from 100 to 450 liters per hectare (L/ha). Application was made using a precision gas backpack sprayer at pressures ranging from 150 to 300 kPA pressure using 2 to 4 m booms utilizing 4 to 8 flat fan nozzles to broadcast the treatments to the weeds and to the soil.
(§5) The treated and control plots were rated blind at various intervals after application. Ratings were based on Percent (%) Visual weed control, where 0 corresponds to no control and 100 corresponds to complete control.
(§6) Colby's equation was used to determine the herbicidal effects expected from the mixtures (Colby, S. R. Calculation of the synergistic and antagonistic response of herbicide combinations. Weeds 1967 15, 20-22).
(§7) The following equation was used to calculate the expected activity of mixtures containing two active ingredients, A and B:
(§8) A=observed efficacy of active ingredient A at the same concentration as used in the mixture;
(§9) B=observed efficacy of active ingredient B at the same concentration as used in the mixture.

[3] = system: Convolvus arvensis (CONAR, field bindweed); assay: Postemergence field weed control, CONAR; details: 59 DAA
Method: as §1, §3, §4, §5, §6, §7, §8, §9

[4] = system: Anagallis arvensis L. (ANGAR, scarlet pimpernel); assay: Postemergence field weed control, ANGAR; details: 14 DAA
Method: as §1, §2

[5] = system: Polygonum convolvulus L. (POLCO, wild buckwheat); assay: Postemergence field weed control, POLCO; details: 14 DAA
Method: as §1, §3, §4, §5, §6, §7, §8, §9

[6] = system: Malva neglecta Wallr. (MALNE, common mallow); assay: Postemergence field weed control, MALNE; details: 14 DAA
Method: as §1, §2

[7] = system: Conyza canadensis (L.) Cronq. (ERICA, horseweed); assay: Postemergence field weed control, ERICA; details: 43 DAA
Method: as §1, §3, §4
The treated and control plots were rated blind at various intervals after application. […]

[8] = system: Ottochloa nodosa (OTTNO, slender panicgrass); assay: Postemergence field weed control, OTTNO; details: 70 DAA
Method: as §1, §2

[9] = system: Calopogonium mucunoides (CLOMU, calopo); assay: Postemergence field weed control, CLOMU; details: 70 DAA
Method: as §1, §2

[10] = system: Commelina benghalensis L. (COMBE, Bengal dayflower); assay: Postemergence field weed control, COMBE; details: 28 DAA
Method: as §1, §2

[11] = system: Axonopus compressus (AXOCO, tropical carpetgrass); assay: Postemergence field weed control, AXOCO; details: 70 DAA
Method: as §1, §2

[12] = system: Urtica dioica L. (URTDI, stinging nettle); assay: Postemergence field weed control, URTDI; details: 28 DAA
Method: as §1, §2

[13] = system: Paspalum conjugatum Bergius (PASCO, sour paspalum); assay: Postemergence field weed control, PASCO; details: 70 DAA
Method: as §1, §2

[14] = system: Kochia scoparia (L.) Schrad. (KCHSC, kochia); assay: Postemergence field weed control, KCHSC; details: 36 DAA
Method: as §1, §2

[15] = fluroxypyr-meptyl 200 grams ae/ha alone, Table 3
[16] = fluroxypyr-meptyl 400 grams ae/ha alone, Table 4
[17] = fluroxypyr-meptyl 200 grams ae/ha alone
[18] = fluroxypyr-meptyl 53 gae/ha alone
[19] = glyphosate-isopropylammonium 1000 grams ae/ha alone
[20] = glyphosate-isopropylammonium 500 gae/ha alone

CCCCCCC(C)OC(=O)COc1nc(F)c(Cl)c(N)c1Cl (stereo not drawn) [Fluroxypyr-meptyl, fluoroxypyr-meptyl]
MIKCO Obs (Observed weed control) ([1]; fluroxypyr-meptyl 50 grams ae/ha alone): 42% | CIRAR Obs (Observed weed control) ([2]; fluroxypyr-meptyl 300 grams ae/ha alone, 59 DAA): 3% | CIRAR Obs (Observed weed control) ([2]; fluroxypyr-meptyl 400 grams ae/ha alone, 14 DAA): 7% | CONAR Obs (Observed weed control) [3, 15]: 47% | CONAR Obs (Observed weed control) ([3]; fluroxypyr-meptyl 300 grams ae/ha alone, Table 4): 50% | CONAR Obs (Observed weed control) [3, 16]: 48% | ANGAR Obs (Observed weed control) ([4]; fluroxypyr-meptyl 400 grams ae/ha alone): 0% | POLCO Obs (Observed weed control) [5, 15]: 52% | POLCO Obs (Observed weed control) ([5]; fluroxypyr-meptyl 400 grams ae/ha alone, Table 3): 68% | POLCO Obs (Observed weed control) [5, 16]: 60% | MALNE Obs (Observed weed control) [6, 17]: 48% | ERICA Obs (Observed weed control) ([7]; fluroxypyr-meptyl 140 grams ae/ha alone): 4% | OTTNO Obs (Observed weed control) [8, 18]: 0% | CLOMU Obs (Observed weed control) [9, 18]: 69% | COMBE Obs (Observed weed control) [10, 17]: 36% | AXOCO Obs (Observed weed control) [11, 18]: 0% | URTDI Obs (Observed weed control) [12, 17]: 10% | PASCO Obs (Observed weed control) [13, 18]: 0% | KCHSC Obs (Observed weed control) ([14]; fluroxypyr-meptyl 67 grams ae/ha alone): 48%

O=C(O)CNCP(=O)(O)O [Glyphosate-isopropylammonium, glyphosate-isopropylammonium]
MIKCO Obs (Observed weed control) ([1]; glyphosate-isopropylammonium 360 grams ae/ha alone): 58% | CIRAR Obs (Observed weed control) ([2]; glyphosate-isopropylammonium 1000 grams ae/ha alone, 14 DAA): 58% | CIRAR Obs (Observed weed control) ([2]; glyphosate-isopropylammonium 1000 grams ae/ha alone, 59 DAA): 58% | CONAR Obs (Observed weed control) ([3]; glyphosate-isopropylammonium 1500 grams ae/ha alone, Table 4): 43% | CONAR Obs (Observed weed control) ([3]; glyphosate-isopropylammonium 2000 grams ae/ha alone, Table 3): 55% | CONAR Obs (Observed weed control) ([3]; glyphosate-isopropylammonium 2000 grams ae/ha alone, Table 4): 55% | ANGAR Obs (Observed weed control) [4, 19]: 43% | POLCO Obs (Observed weed control) ([5]; glyphosate-isopropylammonium 1000 grams ae/ha alone, Table 3): 25% | POLCO Obs (Observed weed control) ([5]; glyphosate-isopropylammonium 1000 grams ae/ha alone, Table 4): 25% | POLCO Obs (Observed weed control) ([5]; glyphosate-isopropylammonium 1500 grams ae/ha alone, Table 3): 60% | MALNE Obs (Observed weed control) [6, 19]: 14% | ERICA Obs (Observed weed control) ([7]; glyphosate-isopropylammonium 560 grams ae/ha alone): 18% | ERICA Obs (Observed weed control) ([7]; glyphosate-isopropylammonium 840 grams ae/ha alone): 73% | OTTNO Obs (Observed weed control) [8, 20]: 59% | CLOMU Obs (Observed weed control) [9, 20]: 64% | COMBE Obs (Observed weed control) ([10]; glyphosate-isopropylammonium 710 grams ae/ha alone): 43% | AXOCO Obs (Observed weed control) [11, 20]: 59% | URTDI Obs (Observed weed control) ([12]; glyphosate-isopropylammonium 1100 grams ae/ha alone): 24% | PASCO Obs (Observed weed control) [13, 20]: 59% | KCHSC Obs (Observed weed control) ([14]; glyphosate-isopropylammonium 280 grams ae/ha alone): 23%
